Results from PubChem BioAssay (NCI).
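Results reflect a 48-hour exposure of cells in 96-well plates to compound at five concentrations. TGI: total growth inhibition.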

How the values were obtained:
Test in all cases: NCI tumour cell line growth inhibition, 48 h
HOP-92 NSCLC = system: HOP-92 NSCLC
EKVX NSCLC = system: EKVX NSCLC
IGROV1 ovarian = system: IGROV1 ovarian
TK-10 renal = system: TK-10 renal
MDA-N = system: MDA-N
UACC-62 melanoma = system: UACC-62 melanoma
OVCAR-5 ovarian = system: OVCAR-5 ovarian
DU-145 prostate = system: DU-145 prostate
SNB-19 CNS = system: SNB-19 CNS
786-0 renal = system: 786-0 renal
SN12C renal = system: SN12C renal
NCI-H23 lung = system: NCI-H23 lung
NCI-H522 lung = system: NCI-H522 lung
KM12 colon = system: KM12 colon
A498 renal = system: A498 renal
HCT-116 colon = system: HCT-116 colon
K-562 leukemia = system: K-562 leukemia
NCI/ADR-RES ovarian = system: NCI/ADR-RES ovarian
HCT-15 colon = system: HCT-15 colon
A549 NSCLC = system: A549 NSCLC

| Compound | TGI (HOP-92 NSCLC) | TGI (EKVX NSCLC) | TGI (IGROV1 ovarian) | TGI (TK-10 renal) | TGI (MDA-N) | TGI (UACC-62 melanoma) | TGI (OVCAR-5 ovarian) | TGI (DU-145 prostate) | TGI (SNB-19 CNS) | TGI (786-0 renal) | TGI (SN12C renal) | TGI (NCI-H23 lung) | TGI (NCI-H522 lung) | TGI (KM12 colon) | TGI (A498 renal) | TGI (HCT-116 colon) | TGI (K-562 leukemia) | TGI (NCI/ADR-RES ovarian) | TGI (HCT-15 colon) | TGI (A549 NSCLC) |
| --- | --- | --- | --- | --- | --- | --- | --- | --- | --- | --- | --- | --- | --- | --- | --- | --- | --- | --- | --- | --- |
| Cc1ccc([N+](=O)[O-])c2c(NCCNC(=O)Cn3ccnc3[N+](=O)[O-])ccnc12 | 78.1 µM | > 100 µM | 86.6 µM | > 100 µM | > 100 µM | > 100 µM | > 100 µM | > 100 µM | > 100 µM | > 100 µM | > 100 µM | > 100 µM | 38 µM | > 100 µM | > 100 µM | > 100 µM | > 100 µM | > 100 µM | > 100 µM | > 100 µM |
| O=C(/C=C(\O)c1ccc(Cl)cc1)C(=O)N=Nc1c(O)[nH]c2ccc(Br)cc12 | > 100 µM | > 100 µM | > 100 µM | > 100 µM | > 100 µM | > 100 µM | > 100 µM | > 100 µM | > 100 µM | > 100 µM | > 100 µM | > 100 µM | > 100 µM | > 100 µM | 74.3 µM | > 100 µM | 45.8 µM | > 100 µM | > 100 µM | > 100 µM |
| Cc1nc(C)c(C(=O)NNC(=O)Cc2ccccc2)cc1C(=O)NNC(=O)Cc1ccccc1 | > 100 µM | > 100 µM | > 100 µM | > 100 µM | > 100 µM | > 100 µM | > 100 µM | > 100 µM | > 100 µM | > 100 µM | > 100 µM | > 100 µM | > 100 µM | > 100 µM | > 100 µM | > 100 µM | > 100 µM | > 100 µM | > 100 µM | > 100 µM |
| CC(=O)Oc1ccc2c(c1)Oc1cc(C(C)=O)ccc1C21OC(=O)c2ccccc21 (stereo not given) | > 100 µM | > 100 µM | > 100 µM | > 100 µM | > 100 µM | > 100 µM | > 100 µM | > 100 µM | > 100 µM | > 100 µM | > 100 µM | > 100 µM | > 100 µM | > 100 µM | > 100 µM | > 100 µM | > 100 µM | > 100 µM | > 100 µM | > 100 µM |
| CC1=NN(C(=O)CC(=O)Nc2ccccc2C)C(=O)C1N=Nc1ccc(C(=O)O)cc1 (stereo not given) | > 100 µM | > 100 µM | > 100 µM | > 100 µM | > 100 µM | > 100 µM | > 100 µM | > 100 µM | > 100 µM | > 100 µM | > 100 µM | > 100 µM | > 100 µM | > 100 µM | > 100 µM | > 100 µM | > 100 µM | > 100 µM | > 100 µM | > 100 µM |
